From patent US20110021471A1, “REDUCING Abeta42 LEVELS AND Abeta AGGREGATION” (priority 2007, published 2011)
Read-outs that look alike come from different tables or passages of the source.

Legend:
γ-secretase [1] = target: T1, γ-secretase (Homo sapiens, UniProt P49768); assay: GSM activity of compounds that bind Aβ or Aβ amyloid (cell-based or cell-free γ-secretase assays, FIG. 12); settings: two doses (10 and 100 μM)
Procedure: A literature search was performed to identify compounds reported to bind to the Aβ peptide directly or amyloid. These candidates were initially tested in cell-based assays or cell-free in vitro γ-secretase assays at two doses (10 and 100 μM).
Finally, X-34 was tested for its ability to modulate Aβ42 amounts in an APP transgenic mouse (Tg2576).

H4 APPwt cells = assay: Immunoprecipitation-mass spectrometry of media from H4 APPwt cells; assay type: cell-based, human
Procedure: FIG. 14. Amyloid binding compounds alter the cleavage of Aβ similar to other established γ-secretase modulators Immunoprecipitation-mass spectrometry studies were conducted on media from H4 APPwt cells grown in the presence of test compounds for 16 hours. Conditions were: control (DMSO, 0.5%), sulindac sulfide (SS; 25 μM), chrysamine g (CG; 25 μM), and X-34 (25 μM). SS was included as a control GSM known to reduce Aβ42 and increase Aβ38. Spectra shown are representative of two experiments with 2-3 replicates each. Identified Aβ peptides based on calculated mass (m/z) are indicated above the peaks.

APP-CTF = target: T2, APP-CTF (Homo sapiens, UniProt P05067); assay: Photoaffinity labelling of APP and APP CTF in H4 cell membrane fractions and competition; assay type: binding; settings: for competition of APP-CTF labeling by Fen-B and Flurbi-BpB: photoprobe 25 μM, competitor 200 μM
T2 construct: this protein was designated α-secretase-derived APP CTF (CTF83) on the basis of molecular weight; expressed in transfected cells
T2 sequence (P05067 688-770 limits assumed): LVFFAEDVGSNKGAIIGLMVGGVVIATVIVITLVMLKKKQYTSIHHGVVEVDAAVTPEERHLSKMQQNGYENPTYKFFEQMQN
Procedure: Photoaffinity labelling. All experiments used the following general protocol. Samples (recombinant or synthetic peptides, cell lysates and membrane preparations) were exposed in borosilicate test tubes to ultraviolet light (350 nm) in a Rayonet Photoreactor R100 (RPR-3500 lamps, Southern New England Ultra Violet Company) in a cold room (4° C.) for 30 minutes or as otherwise noted. Crosslinked samples were analyzed by ELISA for biotin incorporation, or analyzed directly by SDS-PAGE (Criterion-XT, Bio-Rad), or after precipitation with streptavidin ultralink plus beads (Pierce). After immunblotting, proteins were detected using chemiluminesence (ECL Plus, GEHealthcare) or near-infrared fluorescence (LiCor Odyssey). Full-length APP and APP CTFs (CTF83, CTF99) were detected with CT20, a rabbit polyclonal antibody against the C-terminus of APP. Biotin was detected with an affinity-purified rabbit polyclonal antibody (Bethyl). Cell-based screens for amyloid-β modulation.

γ-secretase [2] = target: T1, γ-secretase; assay: Cell-free in vitro γ-secretase assay; assay type: biochemical; settings: for Aβ40 in cell-free γ-secretase assay / total Aβ production in cell-free γ-secretase assay: increasing doses
Procedure: FIG. 5. Fenofibrate-Biotin (Fen-B) is an Aβ42 raising GSM that labels cell-derived APP-CTF. (A) The effects of fenofibrate and fenofibrate-biotin (Fen-B) on Aβ production were investigated in a cell-free in vitro γ-secretase assay performed as described in the methods. […] Percent control Aβ species±s.e.m., n=2. (B) Fen-B labels APP-CTFs from cells lysates. CHAPSO solubilized membrane fractions from H4 APP-CTF-105-AP cells were irradiated (350 nm) in the presence of Fen-B (50 μM) for 30 minutes. Biotinylated material was precipitated with streptavidin overnight (SAv). Beads were washed (3×) and then incubated with XT sample buffer, heated to 95° C., run on 12% Criterion XT gels, and transferred to nitrocellulose membranes. Blots were probed for biotin (Bethyl) and APP (CT20). Excess drug (Fen-B) and unlableled APP-CTF is detected in the flow-through from the beads (unbound lane). Biotin bound to streptavdin (SAv) is detected by the anti-biotin antibody. APP-CTF-83 is pulled down in lane 2 and is reactive with anti-biotin and anti-APP (CT20).
Congo red (CR) and chrysamine G (CG), two of the most well characterized amyloid-β dyes, act as GSMs in cell-free γ-secretase assays.

[3] = test system: Human H4 neuroglioma cells expressing wild-type APP695 protein or CTF105; assay: Cell-based screens for amyloid-β modulation (H4 cells, ELISA); settings: for Aβ42 levels: H4 cells expressing APP
Description: Photoaffinity labelling. All experiments used the following general protocol. […] Cell-based screens for amyloid-β modulation. […] Statistical analysis.

H4Bri-C99 (CTF-3) = test system: H4Bri-C99 (CTF-3)
Procedure: FIG. 6. […] Parent GSMs and biotin tagged photoactivatable GSMs were evaluated for their effects on Aβ secreted from H4Bri-C99 (CTF-3). Cells were treated with compounds for 6 hours and Aβ measured by ELISA. […] Changes in Aβ (percent control)±s.e.m., n=3.
(§1) Photoaffinity labelling. All experiments used the following general protocol. Samples (recombinant or synthetic peptides, cell lysates and membrane preparations) were exposed in borosilicate test tubes to ultraviolet light (350 nm) in a Rayonet Photoreactor R100 (RPR-3500 lamps, Southern New England Ultra Violet Company) in a cold room (4° C.) for 30 minutes or as otherwise noted. Crosslinked samples were analyzed by ELISA for biotin incorporation, or analyzed directly by SDS-PAGE (Criterion-XT, Bio-Rad), or after precipitation with streptavidin ultralink plus beads (Pierce). After immunblotting, proteins were detected using chemiluminesence (ECL Plus, GEHealthcare) or near-infrared fluorescence (LiCor Odyssey). Full-length APP and APP CTFs (CTF83, CTF99) were detected with CT20, a rabbit polyclonal antibody against the C-terminus of APP. Biotin was detected with an affinity-purified rabbit polyclonal antibody (Bethyl). Cell-based screens for amyloid-β modulation. Human H4 neuroglioma cells (American Type Culture Collection, ATCC) expressing wild-type APP695 protein or CTF105 fused to secreted alkaline phosphatase which is efficiently processed to APP CTFs (CTF83, CTF99) and produce high levels of amyloid-β, were used for the cell-based screens as previously described. Cells were incubated for 5-6 hours in the presence of the various compounds in Opti-Mem culture medium containing 1% fetal bovine serum. Compounds were dissolved in dimethylsulphoxide (DMSO; 0.5% final concentration) and diluted 200-fold. Media was analyzed for various amyloid-β species (40, 42 and total) using ELISAs as described herein. The EC50 values for changes in amyloid-β species were calculated by fitting sigmoid dose-response curves using nonlinear regression in Prism (GraphPad) and are shown as values±s.e.m. Statistical analysis. Data are presented as either percentage control or mean±s.e.m. Results were analyzed using Prism (Graph Pad) with t-tests or one-way analysis of variance analyses (ANOVAs) with Dunnett's post-hoc correction for comparison of multiple samples to a control. Statistical significance is shown as P,0.05 (one asterisk), P,0.01 (two asterisks) or P,0.001 (three asterisks).

APP(C100)-Flag = target: T3, APP(C100)-Flag (Homo sapiens, UniProt P05067); assay: Photoaffinity labelling of APP(C100)-Flag and competition; assay type: binding; settings: for competition of Fen-B labeling of C100Flag: Fen-B 10 μM, C100Flag 1 μM, competitor 100 μM
T3 construct: APP(C100)-Flag, comprising the 99 C-terminal residues of APP plus a methionine at the N-terminus; added methionine (N)
T3 sequence (P05067 672-770 limits assumed): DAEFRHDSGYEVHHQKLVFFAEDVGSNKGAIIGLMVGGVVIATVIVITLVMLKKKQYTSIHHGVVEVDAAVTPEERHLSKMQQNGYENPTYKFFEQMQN
Procedure: (§2) FIG. 1. […] The top panel is for anti-biotin staining; the middle panel is for anti-FLAG staining; and the bottom panel is an overlay of anti-biotin (red and anti-Flag green, LiCor Odyssey imaging). (E) Same samples as in D, but analyzed using an ELISA. Following crosslinking, C100Flag and N100 Flag were captured using anti-FLAG plate, and biotin incorporation was measured using streptavidin-HRP. […] Fen-B (50 μM) was crosslinked to Aβ (10 μM). Biotin labeling was measured following capture with an anti-Aβ1-16 antibody and detection with streptavidin-HRP.
as §1
The ability of a purified, recombinant Flag-tagged γ-secretase substrate derived from APP (APP(C100)-Flag, comprising the 99 C-terminal residues of APP plus a methionine at the N-terminus) to be labeled by Fen-B and Flurbi-BpB was tested.

[4] = target: amyloid-β peptides (Aβ1-40, Aβ1-36, Aβ1-28, Flag-Aβ25-36) (Homo sapiens, UniProt P05067); assay: Photoaffinity labelling of amyloid-β peptides; assay type: binding
Procedure: as §2, §1
Because the putative binding region of GSMs is also found in full-length APP, labeling of both APP fragments in cells was assayed.

COc1ccc2[nH]cc(CCNC(C)=O)c2c1 [melatonin]
GSM activity (γ-secretase [1]): did not act as GSMs

CSc1ccc(/C=C2/C(C)=C(CC(=O)O)c3cc(F)ccc32)cc1 [sulindac sulfide]
levels of Aβ42 (IP-MS) (H4 APPwt cells; 25 μM, 16 hours): consistently decrease levels of Aβ42 | competition of APP-CTF labeling by Fen-B and Flurbi-BpB (APP-CTF): decreases labeling of APP-CTF | competition of FL-APP and APP CTF labeling by Fen-B and Flurbi-BpB (APP-CTF; photoprobes 50 μM, data not shown): prevents labeling of FL-APP and APP CTF | Aβ42 in cell-free γ-secretase assay (γ-secretase [2]): lowered Aβ42 levels | Aβ40 in cell-free γ-secretase assay (γ-secretase [2]): lowered Aβ40 at higher doses | total Aβ production in cell-free γ-secretase assay (γ-secretase [2]): without decreasing total Aβ production

NH2-FEGKF-CONH2 [I1]
total amyloid-β amounts [3]: without lowering total amyloid-β amounts | Aβ42 levels [3]: elevated Aβ42 production

CC(C(=O)O)c1ccc(-c2ccc(NC(=O)COc3ccc(C(=O)c4ccc(OCC(=O)NCCNC(=O)CCCC[C@H]5SC[C@H]6NC(=O)N[C@H]65)cc4)cc3)cc2)c(F)c1 (stereo in doubt) [Flurbi-BpB, 2-(2-fluoro-4′-(2-(4-(4-(2-oxo-2-(2-(5-((3aR,4R,6aS)-2-oxohexahydro-1H-thieno[3,4-d]imidazol-4 yl)pentanamido)ethylamino)ethoxy)benzoyl)phenoxy)acetamido)biphenyl-4-yl)propanoic acid]
Aβ42 (direction of change) (H4Bri-C99 (CTF-3); 6 hours): lowered Aβ42 | labeling of full-length APP and APP CTFs (APP-CTF; microsomal membrane fractions from H4 cells expressing wild-type APP): labeled full-length APP and APP CTFs | labeling of APP(C100)-Flag (APP(C100)-Flag): label a recombinant APP c-secretase substrate (APP(C100)-Flag) with similar potency | labeling of Aβ1-36 [4]: labeled | labeling of Flag-tagged Aβ25-36 [4]: preferentially label

O=C(CCCC[C@H]1SC[C@H]2NC(=O)N[C@H]21)NCCNC(=O)COc1ccc(C(=O)c2ccccc2)cc1 [BpB, N-(2-(2-(4-benzoylphenoxy)acetamido)ethyl)-5-((3aR,4R,6aS)-2-oxohexahydro-1Hthieno[3,4-d]imidazol-4-yl)pentanamide]
Aβ42 (direction of change) (H4Bri-C99 (CTF-3); 6 hours): increased Aβ42 | labeling of Aβ1-36 [4]: minor labelling

O=C(O)c1cc(/N=N/c2ccc(-c3ccc(/N=N/c4ccc(O)c(C(=O)O)c4)cc3)cc2)ccc1O [Chrysamine G]
shorter amyloid-β (IP-MS) (H4 APPwt cells): increased amounts of shorter amyloid-β | Aβ33 levels (IP-MS) (H4 APPwt cells; 25 μM, 16 hours): raise Aβ33 levels more effectively than SS | levels of Aβ42 (IP-MS) (H4 APPwt cells; 25 μM, 16 hours): consistently decrease levels of Aβ42 | Aβ42 in cell-free γ-secretase assay (γ-secretase [2]): lowered Aβ42 selectively | Aβ40 in cell-free γ-secretase assay (γ-secretase [2]): lowered Aβ40 at higher doses | total Aβ production in cell-free γ-secretase assay (γ-secretase [2]): without decreasing total Aβ production | Aβ42 in cell-free γ-secretase assay (γ-secretase [2]; listed as CG): lowered Aβ42 levels | Aβ42 levels [3]: decrease

CC1=C(CC(=O)O)c2cc(F)ccc2/C1=C\c1ccc(S(C)(=O)=O)cc1 [sulindac sulfone]
competition of Fen-B labeling of C100Flag (APP(C100)-Flag): not

O=S(=O)(O)c1cccc2c(-c3ccc(Nc4ccccc4)c4c(S(=O)(=O)O)cccc34)ccc(Nc3ccccc3)c12 [Bis-ANS, 4,49-dianilino-1,19-binaphthyl-5,59-disulphonic acid]
GSM activity (γ-secretase [1]): Aβ42-lowering | Aβ42 levels [3]: decrease

COc1ccc2cc([C@H](C)C(=O)O)ccc2c1 [naproxen]
competition of Fen-B labeling of C100Flag (APP(C100)-Flag): did not compete

CC(C)OC(=O)C(C)(C)Oc1ccc(C(=O)c2ccc(Cl)cc2)cc1 [fenofibrate]
Aβ42 increase (H4Bri-C99 (CTF-3); 33 μM, 6 hours): 300% | Toxicity, based on cell morphology and XTT assay (H4Bri-C99 (CTF-3); human, 6 h): noted at higher concentrations (150, 200 μM)

Clc1ccc(C(c2ccc(Cl)cc2)n2cc[n+](CC(OCc3ccc(Cl)cc3Cl)c3ccc(Cl)cc3Cl)c2)cc1 (stereo not drawn) [calmidazolium]
GSM activity (γ-secretase [1]): Aβ42-raising

O=C(O)CCCC[C@@H]1SC[C@@H]2NC(=O)N[C@@H]21 [Biotin]
Aβ levels (H4Bri-C99 (CTF-3); 6 hours): no effect

CC(=O)Oc1ccccc1C(=O)O [aspirin]
competition of Fen-B labeling of C100Flag (APP(C100)-Flag): did not compete

Nc1c(/N=N/c2ccc(-c3ccc(/N=N/c4cc(S(=O)(=O)O)c5ccccc5c4N)cc3)cc2)cc(S(=O)(=O)O)c2ccccc12 [Congo red]
Aβ42 in cell-free γ-secretase assay (γ-secretase [2]): lowered Aβ42 selectively | total Aβ production in cell-free γ-secretase assay (γ-secretase [2]): without decreasing total Aβ production | Aβ42 in cell-free γ-secretase assay (γ-secretase [2]; listed as CR): lowered Aβ42 levels

O=C(c1ccccc1)c1ccccc1 [benzophenone]
Aβ42 (direction of change) (H4Bri-C99 (CTF-3); 6 hours): increased Aβ42

Aβ28-36: synthetic peptide of the putative GSM binding region (KGAIIGLMV; Amyloid-beta protein 42; UniProt P05067 699-707, looked up, fragment)
competition of APP-CTF labeling by Fen-B and Flurbi-BpB (APP-CTF): decreases labeling of APP-CTF | competition for labeling of FLAG-Aβ-25-36 by Fen-B or Flurbi-BpB ([4]; competitor 100 μM, FLAG-Aβ-25-36 10 μM): competes

CNc1ccc(-c2nc3ccccc3s2)cc1 [BTA-1]
GSM activity (γ-secretase [1]): did not act as GSMs

O=C1NC(=O)c2cc(Nc3ccccc3)c(Nc3ccccc3)cc21 [DAPH, 4,5-dianilinophthalimide]
GSM activity (γ-secretase [1]): Aβ42-raising | Aβ42 levels [3]: selectively increase
